Structures can show the parent of a compound that is named as a salt.
Key:
μ-receptor = μ-receptor (Homo sapiens (Human), UniProt P35372); assay: Receptor binding, competitive displacement of [3H]DAMGO; conditions: 0.25 nM [3H]DAMGO, CHO cell membrane protein, 60 min at 25° C.
Protocol: The Ki (binding affinity) for μ-receptor was determined with a previously described method using a competitive displacement assay (Neumeyer et al., J. Med. Chem., v. 46, p. 5162-5170, 2003). Membrane protein from CHO (Chinese Hamster Ovarian) cells that stably expressed one type of the cloned human opioid receptor were incubated with 12 different concentrations of the compound in the presence of 0.25 nM [3H]DAMGO, 0.2 nM [3H]naltrindole or 1 nM [3H]U69,593 in a final volume of 1 mL of 50 mM Tris-HCl, pH 7.5 at 25° C. Incubation times of 60 min were used for [3H]DAMGO and [3H]U69,593. Because of a slower association of [3H]naltrindole with the receptor, a 3 h incubation was used with this radioligand. Samples incubated with [3H]naltrindole also contained 10 mM MgCl2 and 0.5 mM phenylmethylsulfonyl fluoride. Nonspecific binding was measured by inclusion of 10 μM naloxone. The binding was terminated by filtering the samples through Schleicher & Schuell No. 32 glass fiber filters using a Brandel 48-well cell harvester. The filters were subsequently washed three times with 3 mL of cold 50 mM Tris-HCl, pH 7.5, and were counted in 2 mL Ecoscint A scintillation fluid. For [3H]naltrindole and [3H]U69,593 binding, the filters were soaked in 0.1% polyethylenimine for at least 60 min before use. IC50 values will be calculated by least squares fit to a logarithm-probit analysis. Ki values of unlabelled compounds were calculated from the equation Ki=(IC50)/1+S where S=(concentration of radioligand)/(Kd of radioligand) (Cheng and Prusoff, Biochemical Pharmacology, v. 22, p. 3099-3108, 1973).

human μ opioid receptor = human μ opioid receptor (Homo sapiens (Human), UniProt P35372); assay: Functional activity ([35S]GTPγS binding); format: biochemical; conditions: [35S]GTPγS 0.080 nM, CHO cell membranes, 60 min at 30° C., filtration
Protocol: The [^35S]GTPγS assay measures the functional properties of a compound by quantifying the level of G-protein activation following agonist binding in studies using stably transfected cells, and is considered to be a measure of the efficacy of a compound. Membranes from CHO (Chinese Hamster Ovary) cells that stably expressed one type of the cloned human opioid receptor human were used in the experiments. In a final volume of 0.5 mL, 12 different concentrations of each test compound were incubated with 7.5 μg of CHO cell membranes that stably expressed the human p opioid receptor. The assay buffer consisted of 50 mM Tris-HCl, pH 7.4, 3 mM MgCl2, 0.2 mM EGTA, 3 μM GDP, and 100 mM NaCl. The final concentration of [35S]GTPγS was 0.080 nM. Nonspecific binding was measured by inclusion of 10 μM GTPγS. Binding was initiated by the addition of the membranes. After an incubation of 60 min at 30° C., the samples were filtered through Schleicher & Schuell No. 32 glass fiber filters. The filters were washed three times with cold 50 mM Tris-HCl, pH 7.5, and were counted in 2 mL of Ecoscint scintillation fluid.

Row | Structure (SMILES) | Ki (μ-receptor) [µM] | EC50 (human μ opioid receptor) [µM]
1 | COC1(c2ccnc(C(N)=O)c2)C2CCCC1CN(C1CC(c3ccccc3)C1)C2 [Compound 89, 4-((1R,5S,9R)-9-methoxy-3-((1s,3S)-3-phenylcyclobutyl)-3-azabicyclo[3.3.1]nonan-9-yl)picolinamide hydrochloride] | < 0.001 | < 0.01
2 | COC1(c2ccnc(C(N)=O)c2)C2CCCC1CN(C1CC3CCC(C1)O3)C2 [Compound 10, 4-((1R,5S,9R)-3-((1R,3r,5S)-8-oxabicyclo[3.2.1]octan-3-yl)-9-methoxy-3-azabicyclo[3.3.1]nonan-9-yl)picolinamide hydrochloride] | > 0.005 | > 0.075
3 | COC1(c2cccc(C(N)=O)c2)C2CCCC1CN(Cc1n[nH]c3ccccc13)C2 [Compound 154, 3-((1R,5S,9r)-3-((1H-indazol-3-yl)methyl)-9-methoxy-3-azabicyclo[3.3.1]nonan-9-yl)benzamide hydrochloride] | < 0.001 | < 0.01
4 | COC1(c2cccc(C(N)=O)c2F)C2CCCC1CN(C)C2 [Compound 39, 2-fluoro-3-((1R,5S,9r)-9-methoxy-3-methyl-3-azabicyclo[3.3.1]nonan-9-yl)benzamide hydrochloride] | 0.001 to 0.005 | 0.01 to 0.075
5 | COC1(c2ccnc(C(N)=O)c2)C2CCCC1CN(Cc1n[nH]c3ccccc13)C2 [Compound 142, 4-((1R,5S,9r)-3-((1H-indazol-3-yl)methyl)-9-methoxy-3-azabicyclo[3.3.1]nonan-9-yl)picolinamide hydrochloride] | < 0.001 | < 0.01
6 | CCC[C@H](C)N1CC2CCCC(C1)C2(OC)c1ccnc(C(N)=O)c1 (single isomer, unassigned) [Compound 134, hydrochloride] | < 0.001 | 0.01 to 0.075
7 | COC1(c2cccc(C(N)=O)c2)C2CCCC1CN(Cc1nc3ccccc3[nH]1)C2 [Compound 64, 3-((1R,5S,9r)-3-((1H-benzo[d]imidazol-2-yl)methyl)-9-methoxy-3-azabicyclo[3.3.1]nonan-9-yl)benzamide hydrochloride] | < 0.001 | < 0.01
8 | COC1(c2ccnc(C(N)=O)c2)C2CCCC1CN(CCN1CCNC1=O)C2 [Compound 85, 4-((1R,5S,9r)-9-methoxy-3-(2-(2-oxoimidazolidin-1-yl)ethyl)-3-azabicyclo[3.3.1]nonan-9-yl)picolinamide hydrochloride] | 0.001 to 0.005 | 0.01 to 0.075
9 | COC1(c2ccc(C(N)=O)s2)C2CCCC1CN(CCN1CCOC1=O)C2 [Compound 98, 5-((1R,5S,9r)-9-methoxy-3-(2-(2-oxooxazolidin-3-yl)ethyl)-3-azabicyclo[3.3.1]nonan-9-yl)thiophene-2-carboxamide (S)-2-hydroxysuccinate] | > 0.005 | 0.01 to 0.075
10 | COC1(c2ccnc(C(N)=O)c2)C2CCCC1CN([C@H]1CC[C@@H]1c1ccccc1)C2 (stereo partly drawn) [Compound 117, 4-((1R,5S,9s)-9-methoxy-3-((1S,2R)-2-phenylcyclobutyl)-3-azabicyclo[3.3.1]nonan-9-yl)picolinamide hydrochloride] | 0.001 to 0.005 | 0.01 to 0.075
11 | COC1(c2ccnc(C(N)=O)c2)C2CCCC1CN(CC(C)C)C2 [Compound 92, 4-((1R,5S,9r)-3-isobutyl-9-methoxy-3-azabicyclo[3.3.1]nonan-9-yl)picolinamide hydrochloride] | > 0.005 | > 0.075
12 | COC1(c2ccnc(C(N)=O)c2)C2CCCC1CN([C@@H]1CCOC1)C2 (stereo partly drawn) [Compound 78, 4-((1R,5S,9s)-9-methoxy-3-((S)-tetrahydrofuran-3-yl)-3-azabicyclo[3.3.1]nonan-9-yl)picolinamide hydrochloride] | 0.001 to 0.005 | 0.01 to 0.075
13 | COC1(c2ccc(C(N)=O)s2)C2CCCC1CN(C1CCOCC1)C2 [Compound 71, 5-((1R,5S,9r)-9-methoxy-3-(tetrahydro-2H-pyran-4-yl)-3-azabicyclo[3.3.1]nonan-9-yl)thiophene-2-carboxamide hydrochloride] | > 0.005 | > 0.075
14 | COC1(c2ccnc(C(N)=O)c2)C2CCCC1CN([C@@H]1C[C@H]3C[C@H]3C1)C2 (stereo partly drawn) [Compound 93, 4-((1R,5S,9R)-3-((1R,3r,5S)-bicyclo[3.1.0]hexan-3-yl)-9-methoxy-3-azabicyclo[3.3.1]nonan-9-yl)picolinamide hydrochloride] | 0.001 to 0.005 | 0.01 to 0.075
15 | CCCN1CC2CCCC(C1)C2(OC)c1cccc(C(N)=O)c1 [Compound 47, 3-((1R,5S,9r)-9-methoxy-3-propyl-3-azabicyclo[3.3.1]nonan-9-yl)benzamide hydrochloride] | < 0.001 | < 0.01
16 | COC1(c2cccc(C(N)=O)c2)C2CCCC1CN(CC1(F)CC1)C2 [Compound 40, 3-((1R,5S,9r)-3-((1-fluorocyclopropyl)methyl)-9-methoxy-3-azabicyclo[3.3.1]nonan-9-yl)benzamide hydrochloride] | < 0.001 | 0.01 to 0.075
17 | COC1(c2cccc(C(N)=O)c2)C2CCCC1CN(C1COC1)C2 [Compound 50, 3-((1R,5S,9r)-9-methoxy-3-(oxetan-3-yl)-3-azabicyclo[3.3.1]nonan-9-yl)benzamide (S)-2-hydroxysuccinate] | 0.001 to 0.005 | 0.01 to 0.075
18 | COC1(c2ccnc(C(N)=O)c2)C2CCCC1CN([C@H]1C[C@H](C)C1)C2 (stereo partly drawn) [Compound 131, 4-((1R,5S,9R)-9-methoxy-3-((1r,3R)-3-methylcyclobutyl)-3-azabicyclo[3.3.1]nonan-9-yl)picolinamide hydrochloride] | 0.001 to 0.005 | 0.01 to 0.075
19 | CCCCN1CC2CCCC(C1)C2(OC)c1cccc(C(N)=O)c1 [Compound 29, 3-((1R,5S,9r)-3-butyl-9-methoxy-3-azabicyclo[3.3.1]nonan-9-yl)benzamide hydrochloride] | < 0.001 | < 0.01
20 | COC1(c2ccnc(C(N)=O)c2)C2CCCC1CN([C@H]1C[C@@H](F)C1)C2 (stereo partly drawn) [Compound 2, 4-((1R,5S,9R)-3-((1s,3S)-3-fluorocyclobutyl)-9-methoxy-3-azabicyclo[3.3.1]nonan-9-yl)picolinamide hydrochloride] | < 0.001 | 0.01 to 0.075
21 | COC1(c2ccnc(C(N)=O)c2)C2CCCC1CN(C1CCCC1)C2 [Compound 55, 4-((1R,5S,9r)-3-cyclopentyl-9-methoxy-3-azabicyclo[3.3.1]nonan-9-yl)picolinamide hydrochloride] | < 0.001 | 0.01 to 0.075
22 | COC1(c2ccnc(C(N)=O)c2)C2CCCC1CN([C@H]1C[C@H]3C[C@H]3C1)C2 (stereo partly drawn) [Compound 94, 4-((1R,5S,9R)-3-((1R,3s,5S)-bicyclo[3.1.0]hexan-3-yl)-9-methoxy-3-azabicyclo[3.3.1]nonan-9-yl)picolinamide hydrochloride] | < 0.001 | 0.01 to 0.075
23 | CN1CC2CCCC(C1)C2(OCC(F)(F)F)c1cccc(C(N)=O)c1 [Compound 37, 3-((1R,5S,9r)-3-methyl-9-(2,2,2-trifluoroethoxy)-3-azabicyclo[3.3.1]nonan-9-yl)benzamide hydrochloride] | 0.001 to 0.005 | 0.01 to 0.075
24 | COC1(c2ccnc(C(N)=O)c2)C2CCCC1CN([C@H]1C[C@@H](C)C1)C2 (stereo partly drawn) [Compound 130, 4-((1R,5S,9R)-9-methoxy-3-((1s,3S)-3-methylcyclobutyl)-3-azabicyclo[3.3.1]nonan-9-yl)picolinamide hydrochloride] | < 0.001 | 0.01 to 0.075
25 | COC1(c2ccnc(C(N)=O)c2)C2CCCC1CN(C[C@@H]1CCCO1)C2 (single isomer, unassigned) [Compound 135, hydrochloride] | 0.001 to 0.005 | 0.01 to 0.075
26 | COC1(c2cccc(C(N)=O)c2)C2CCCC1CN(C1CC3CCC(C1)O3)C2 (single isomer, unassigned) [Compound 14, hydrochloride] | 0.001 to 0.005 | > 0.075
27 | COC1(c2cccc(C(N)=O)c2)C2CCCC1CN(C1CCC1)C2 [Compound 42, 3-((1R,5S,9r)-3-cyclobutyl-9-methoxy-3-azabicyclo[3.3.1]nonan-9-yl)benzamide hydrochloride] | < 0.001 | < 0.01
